ChEMBL document CHEMBL5537109, “Natural products as potential lead compounds to develop new antiviral drugs over the past decade” (Eur J Med Chem, 2023)
Numbered stars: 1 amine (or outer) side, 2 acyl side, 3 side chain; on linkers, the order of the positions; unused ones are H or OH. Bridge positions count the residues as written; N and C are the ends. Square brackets hold non-standard residues; d marks the D form. Peptide text beside a SMILES is read from it. X2 = CCCCCCCCC[C@@H](CCCC(=O)[*:1])O[*:2]; d(aThr) = C[C@@H](O)[C@@H](N)C(=O)O; aIle = CC[C@@H](C)[C@H](N)C(=O)O

Key:
[1] = test system: Human immunodeficiency virus 1; test: Anti-HIV activity against HIV-1 IIIB infected in human C8166 cells assessed as inhibition of virus-induced cytopathic effect by MTT assay; assay type: functional, organism-based; conditions: Human immunodeficiency virus 1, IIIB
[2] = Cytotoxicity against human C8166 cells assessed as inhibition of cell growth incubated for 48 hrs by MTT assay; assay type: toxicity, cell-based
[3] = Cytotoxicity against human C8166 cells assessed as inhibition of cell growth by MTT assay; assay type: toxicity, cell-based
[4] = test system: Human immunodeficiency virus 1; test: Antiviral activity against HIV-1 3B harboring reverse transcriptase infected in human C8166 cells assessed as protection against virus-induced cytopathic effect incubated for 5 days by MTT assay; assay type: functional, organism-based; conditions: Human immunodeficiency virus 1, 3B, C8166, 120 h
SARS-CoV-2 [5] = test: Antiviral activity against SARS-CoV-2 NVDBB-2220 infected in African green monkey Vero cells assessed as reduction in virus-induced cytopathic effect incubated for 5 days by microscopic analysis; assay type: functional, organism-based; conditions: Severe acute respiratory syndrome coronavirus 2, NVDBB-2220, Vero, 120 h
[6] = test system: Human immunodeficiency virus 1; test: Antiviral activity against HIV-1 infected in human MT4 cells assessed as reduction in viral replication; assay type: functional; conditions: Human immunodeficiency virus 1, MT4
[7] = biological target: Human immunodeficiency virus type 1 protease (Human immunodeficiency virus 1, UniProt Q72874); test: Inhibition of HIV-1 protease
Human alphaherpesvirus 1 [8] = test: Antiviral activity against HSV-1 assessed as inhibition of viral growth; assay type: functional, organism-based
SARS-CoV-2 [9] = test: Antiviral activity against SARS-CoV-2 infected in African green monkey Vero cells assessed as reduction in viral replication; assay type: functional, organism-based; conditions: Severe acute respiratory syndrome coronavirus 2, Vero
[10] = Cytotoxicity against African green monkey Vero cells assessed as reduction in cell viability measured after 72 hrs by MTS assay; assay type: toxicity, cell-based; conditions: chlorocebus sabaeus
Huh-7 = test: Cytotoxicity against human Huh-7 cells assessed as reduction in cell viability incubated for 72 hrs by MTT assay; assay type: functional
HEK-293T = test: Cytotoxicity against human HEK293T cells assessed as cell growth inhibition measured after 72 hrs by MTT assay; assay type: functional
[11] = test system: Human immunodeficiency virus 1; test: Antiviral activity against wild-type HIV-1 NL4-3 infected in human MT4 cells assessed as inhibition of viral growth by measuring reduction in p24 antigen level incubated for 3 to 7 days by ELISA analysis; assay type: functional, organism-based; conditions: Human immunodeficiency virus 1, NL4-3, MT4
[12] = Cytotoxicity against African green monkey Vero E6 cells assessed as reduction in cell growth incubated for 24 hrs by WST-8 assay; assay type: toxicity, cell-based, Vero C1008; conditions: chlorocebus sabaeus
Human alphaherpesvirus 1 [13] = test: Antiviral activity against HSV-1 KOS infected in African green monkey Vero cells assessed as reduction in virus induced cytopathogenicity by plaque reduction assay; assay type: functional, organism-based; conditions: Human alphaherpesvirus 1, KOS
[14] = Cytotoxicity against African green monkey Vero cells assessed as reduction in cell viability measured after 72 hrs by MTT assay; assay type: toxicity, cell-based; conditions: chlorocebus sabaeus
[15] = test system: Human immunodeficiency virus 1; test: Antiviral activity against HIV-1 3B infected in human MT4 cells assessed as inhibition of viral replication incubated for 5 days by MTT assay; assay type: functional, organism-based; conditions: Human immunodeficiency virus 1, 3B, MT4, 120 h
RAW264.7 = test: Cytotoxicity against mouse RAW264.7 cells assessed as reduction in cell viability incubated for 24 hrs by CCK-8 method; assay type: functional
[16] = test system: Human immunodeficiency virus 1; test: Antiviral activity against HIV-1 harboring reverse transcriptase infected in human MT4 cells assessed as reduction in virus-induced cytopathic effect; assay type: functional, organism-based; conditions: Human immunodeficiency virus 1, MT4

With C[C@H]1CC(=O)[C@@H]2CCCN(C)CCCC(=O)/C(=N\O)C[C@@H]2C1 the EC50 [1] was 52.9 µg/mL and the CC50 at 48 h [2] was > 200 µM.
For COc1c2c(cc3oc(CO)cc(=O)c13)OC(C)(C)C=C2, the CC50 [3] was > 200 µM and the EC50 [4] was 9.72 µM.
C=C1C(=O)O[C@@]23[C@H]1CC[C@@H](C)[C@@H]2CC[C@@]1(C)O[C@@H]31 [ARTEANNUIN B] showed an EC50 (SARS-CoV-2 [5]) of 10.3 µM.
COc1cccc2c1-c1c3c(c(OC)c4cc[n+]([O-])c(c14)C2=O)OCO3 showed an EC50 [1] of 2.18 µM and a CC50 at 48 h [2] of 56.6 µM.
C=C(C)[C@]12C[C@@H](COC(C)=O)[C@@]3(OO1)[C@@H]1[C@H]2OCCCCCC[C@@H](C)[C@H]2[C@H](C)[C@H](OC(=O)c4ccccc4)[C@@](O)([C@H](O)[C@@]4(CO)O[C@@H]14)[C@@H]23 gave an EC90 [6] of 0.0004 µM and an IC50 [7] of 4.3 µM.
With COc1cc2oc(CO)cc(=O)c2c(OC)c1CC=C(C)C the CC50 [3] was > 200 µM and the EC50 [4] was 1.32 µM.
Work on C/C=C1/C[N+]23CCc4c([nH]c5ccccc45)[C@@H]2C[C@H]1C3C(=O)[O-] (stereo not given in full) yielded an EC50 (Human alphaherpesvirus 1 [8]) of 1.09 µg/mL.
In the case of CC[C@H]1CN2CCc3cc(OC)c(OC)cc3[C@@H]2C[C@@H]1C[C@H]1NCCc2cc(OC)c(OC)cc21 [EMETINE], the EC50 (SARS-CoV-2 [9]) is reported as 7.71 µM, the CC50 at 72 h [10] is reported as 2.17 µM and the CC50 (Huh-7) is reported as 33.4 µM. For the same compound, the CC50 (HEK-293T) was 37.8 µM.
With CCCCCC(O)/C=C/C=C\CCCCCC[C@@]1(O)C[C@H](C(=O)OC)[C@H](C(C)=O)O1 (stereo not given in full) the CC50 [3] was > 200 µM and the EC50 [4] was 0.08 µM.
For C=CC(C)(C)c1cc2cc(C[C@@H](O)C(C)(C)O)c(O)cc2oc1=O, the CC50 [3] was > 200 µM and the EC50 [4] was 0.68 µM.
In the case of O[C@H]1[C@H]2c3cc4c(cc3CN3CCC(=C[C@@H]1O)[C@H]23)OCO4 [LYCORINE], the EC50 (SARS-CoV-2 [9]) is reported as 0.439 µM, the CC50 at 72 h [10] is reported as > 1000 µM and the CC50 (Huh-7) is reported as 0.834 µM. The CC50 (HEK-293T) was 1.04 µM.
Compound O=C1C=C2[C@H]3C=CC[C@]2(O1)[C@H]1CCCCN31 has an EC50 [11] of 45 µM.
Work on CCCCCCCCC[C@H]1CCCC(=O)N[C@H]([C@@H](C)O)C(=O)N[C@H](C)C(=O)N2CCC[C@H]2C(=O)N[C@@H](CCC(N)=O)C(=O)N[C@H](Cc2ccc(O)cc2)C(=O)N[C@@H]([C@H](C)CC)C(=O)O1 ([d(aThr)][dA]PQ[dY][aIle]; linker N-C via X2) yielded an EC50 (Human alphaherpesvirus 1 [8]) of 14 µM.
In the case of O=C1c2c(O)cc(O)cc2O[C@H](c2cc(O)c(O)c(O)c2)[C@H]1O [AMPELOPSIN], the CC50 at 24 h [12] is reported as > 200 µM.
With COc1ccc2c(c1)N=C1c3cc(-c4nccc5c4[nH]c4cc(OC)ccc45)c(C)n3CCC12O (racemic) the EC50 (Human alphaherpesvirus 1 [13]) was 2.12 µM and the CC50 at 72 h [14] was 74.2 µM.
Work on C=C(C)[C@]12C[C@@H](COC(C)=O)[C@@]34OC5(O[C@@H]1[C@@H]3[C@@H]1O[C@]1(CO)[C@@H](O)[C@@]1(O)[C@H]4[C@H]([C@H](C)[C@@H]1OC(=O)c1ccccc1)[C@H](C)C[C@H](OC(=O)c1ccccc1)[C@H](OC(=O)c1ccccc1)CCC[C@H]5O)O2 yielded an EC50 [11] of 0.00025 µM.
Work on C=CC(CO)[C@@H]1C[C@H]2c3[nH]c4ccccc4c3CCN2C(=O)[C@H]1CO (stereo not given in full) yielded an EC50 [15] of 0.06 µM.
In the case of CC(C)=CCc1c(O)cc2oc(CO)cc(=O)c2c1O, the CC50 [3] is reported as > 200 µM and the EC50 [4] is reported as 0.67 µM.
C[C@H]1[C@H](OC(=O)CCC(=O)O)O[C@@H]2O[C@@]3(C)CC[C@H]4[C@H](C)CC[C@@H]1[C@@]24OO3 [ARTESUNATE] gave an EC50 (SARS-CoV-2 [5]) of 13 µM.
In the case of CC[C@H]1CN2CCc3cc(OC)c(OC)cc3[C@@H]2C[C@@H]1C[C@H]1NCCc2cc(O)c(OC)cc21 [CEPHAELINE], the EC50 (SARS-CoV-2 [9]) is reported as 0.0123 µM, the CC50 at 72 h [10] is reported as 46.3 µM and the CC50 (Huh-7) is reported as 3.03 µM. For the same compound, the CC50 (HEK-293T) was 2 µM.
For C=C(C)[C@@]1(OC(C)=O)[C@H](OC(C)=O)[C@@H]2[C@H](OC(C)=O)[C@@]3(C)O[C@@]4([C@@H]3O)[C@@H](OC(=O)c3ccccc3)[C@@H](C)C[C@H]4[C@@]2(O)[C@H](C)[C@@H]1OC(=O)c1ccccc1, the CC50 (RAW264.7) was > 200 µM and the EC50 [16] was 0.21 µM.
